Where two headings read alike, the source gives them in different places.

These results are taken from patent publication US20060292158A1, “Method for the treatment of cancer using a novel pharmaceutical composition containing at least one dolastatin 10 derivative” (priority 2004, published 2006).

Assay [1] deals with Calu-6 human lung cancer xenograft. It counts as in vivo. The conditions noted are these: day 32 after inoculation. The method, then:
The Calu-6 human lung carcinoma cell line was purchased from American Type Culture Collection (MD, U.S.A.). The cells were cultured in Eagle's MEM (Sigma-Aldrich corporation, MO, U.S.A.) supplemented with 0.1 milli mol/L Non-essential amino acids (Invitrogen corporation, CA, U.S.A.), 1 milli mol/L sodium pyruvate (Invitrogen corporation, CA, U.S.A.), and 10% (v/v) fetal bovine serum (Roche Diagnostics KK, Tokyo, Japan).
60 of 5-week-old male athymic nude mice (BALB/c nu/nu) were purchased from Charles River Japan, Inc. (Yokohama, Japan). All mice were kept for 8 days in the animal facility of Kamakura Research Laboratories of Chugai Pharmaceutical Co., Ltd. before subjection to the experiment.
The title compound was synthesized at Kamakura Research Laboratories of Chugai Pharmaceutical Co., Ltd. Irinotecan (Topotecin™, lot. No. EQAZF13) was obtained from Daiichi Pharmaceutical Co., Ltd. (Tokyo, Japan). The title compound was dissolved in dimethyl sulfoxide (DMSO) and diluted into 2.5 % DMSO solution with saline (For Injection; Ohtsuka Pharmaceutical Industry Co., Ltd., Tokushima, Japan) at the date of administration. Irinotecan was diluted with saline at the date of administration.
The in vivo evaluation procedure for anticancer drugs was based on the methods described by Plowman, et al. (1997) for xenograft models. See, “Anticancer Drug Development Guide: Preclinical Screening, Clinical Trials, and Approval, Teicher B (ed) pp. 101-125, specifically Chap. 6, “Human Tumor Xenograft Models in NCI Drug Development”, hereby incorporated by reference. A single cell suspension of Calu-6 (5.7×10^6 cells per mouse) was inoculated subcutaneously into the right flank of each mouse. The tumor volume was estimated by using the equation ab^2/2, where a and b represent tumor length and width, respectively. Mice bearing tumors of between 181 and 326 mm^3 were selected on day 11 after tumor inoculation and were randomly divided into 10 groups, consisting of 5 mice each. […] Drug administration was initiated after mice were randomized and divided into groups. The tide compound (0.375 mg/kg; 0.75 mg/kg; 1.5 mg/kg or 3 mg/kg), irinotecan (80 mg/kg) and each vehicles were administered intravenously. Tumor volume and body weight of each mouse were measured twice a week. […] Tumor growth inhibition was calculated by using the equation (1-ΔT/ΔC)×100, where ΔT represents the tumor volume difference from the initial treatment date of treated group and ΔC represents the tumor volume difference from the initial treatment date of vehicle group.

The test system of assay [2] is MAXF-401 human breast carcinoma xenograft. Put plainly: Antitumor activity in MAXF-401 subcutaneous xenograft in athymic nude mice, combination with capecitabine (Example 3). The conditions noted are these: monotherapy 3, 4 or 6 mg/kg; one week after final injection; 2.5% DMSO control. It counts as in vivo. The method, then:
The MAXF-401 human breast carcinoma cell line was obtained from Prof Fiebig (University of Freiburg, Germany). This cell line was maintained in mice; the tumor fragments were implanted subcutaneously and serially passaged in mice prior to use.
One hundred (100) 5-week-old female athymic nude mice (BALB/c nu/nu) were purchased from Charles River Japan, Inc. (Yokohama, Japan). The mice were housed in an air-conditioned room (temperature 22±2° C., relative humidity 55±10%) under 12 h light/dark cycles. The mice were given sterilized CE-2 and tap water with 25μg/mL gentamycin ad libitum. […]
The in vivo evaluation procedure for anticancer drugs was based on the methods described by Plowman, et al. (1997) for xenograft models. […] The tumor volume and body weight of each mouse were measured twice a week. […] One week after the final injection, tumor growth inhibition (TGI) was calculated using the formula (1-T/C)×100 (%), where T (treated group) and C (control group) represent the mean tumor volume change. ED50 values were calculated from values of tumor growth inhibition on day 21 using the XL fit program. […]
Packaged software (SAS preclinical package version 5.0,SAS Institute Japan, Ltd.) was used for the statistical analysis. […] ED50s were calculated from values of tumor growth inhibition percentage using XL fit program #509 (MS Excel Add Version 3.0.5 Build -In: XLfit3 12, ID Business Solutions Ltd.)

On to `CC[C@H](C)[C@@H]([C@@H](CC(=O)N1CCC[C@H]1[C@H](SC)[C@@H](C)C(=O)N(C)CCc1cccc(O)c1)OC)N(C)C(=O)[C@@H](NC(=O)[C@H](C(C)C)N(C)C)C(C)C` [compound of formula (I-A), N-[1-({1-sec-Butyl-4-[2-(2-{[2-(3-hydroxy-phenyl)-ethyl]-methyl-carbamoyl}-1-methylsulfanyl-propyl)-pyrrolidin-1-yl]-2-methoxy-4-oxo-butyl}-methyl-carbamoyl)-2-methyl-propyl]-2-dimethylamino-3-methyl-butyramide], for which the tumor growth inhibition is reported as 11% in assay [1] (0.375 mg/kg i.v. weekly x3), 21% in assay [1] (0.75 mg/kg i.v. weekly x3), 41% in assay [1] (1.5 mg/kg i.v. weekly x3) and 117% in assay [1] (3 mg/kg i.v. weekly x3). Also, the “volume of tumor in comparison with control” value in assay [2] is reported as “decreased significantly”.
